This note sets out measurements from article PMC8931161 (2022).

Assay [1] has as its system PQS-675-WT (RNA, G4) GGGCGGGCGGCCUGCAGGGACAUGGG
Briefly: fluorescence light-up. Particulars: 150 mM K+, 10 mM Tris-HCl pH 7.5, 2 µM RNA.

The test system of assay [2] is PQS-675-Mut (RNA, single strand) GAGCGAGCGGCCUGCAGAGACAUGAG
Briefly: fluorescence light-up. Particulars: 150 mM K+, 10 mM Tris-HCl pH 7.5, 2 µM RNA.

Assay [3] deals with PQS-675-WT-FRET (RNA, G4) GGGCGGGCGGCCUGCAGGGACAUGGG
Briefly: FRET melting. Particulars: 10 mM Tris-HCl pH 7.5, 1 µM PDS, 200 nM RNA.

The subject of assay [4] is PQS-675-Mut-FRET (RNA, single strand) GAGCGAGCGGCCUGCAGAGACAUGAG
Briefly: FRET melting. Particulars: 150 mM K+; 10 mM Tris-HCl pH 7.5; 1 µM PDS, 200 nM RNA; derived from two Tm (38.33, 38.03).

Assay [5] relates to PQS-675-WT (RNA, G4) GGGCGGGCGGCCUGCAGGGACAUGGG
The experiment in a line: CD melting at 264 nm. Particulars: 10 mM Tris-HCl pH 7.5, 5 µM RNA, PDS concentration not stated.

The test system of assay [6] is PQS-675-WT-biotin (RNA, G4) GGGCGGGCGGCCUGCAGGGACAUGGG
Briefly: bio-layer interferometry. Particulars: K+ (folded in 150 mM KCl); PBST (PBS, 0.01% Tween-20), 25 °C; PDS 0.5-8 µM; 1:1 model; RNA immobilised.

In assay [7] the test system is PQS-675-Mut-biotin (RNA, single strand) GAGCGAGCGGCCUGCAGAGACAUGAG
The experiment in a line: bio-layer interferometry. Particulars: K+ (folded in 150 mM KCl); PBST (PBS, 0.01% Tween-20), 25 °C; PDS 0.5-8 µM; 1:1 model; RNA immobilised. In general terms: BLI is a label-free optical method that tracks binding on a fibre tip over time.

SMILES strings stand for the structures.

Regarding `CCc1c(C)c2cc3nc(cc4nc(cc5c(CC)c(C)c(cc1[nH]2)n5C)C(C)=C4CCC(=O)O)C(CCC(=O)O)=C3C`, the binding entry in assay [1] (2 µM NMM) is listed as “yes”; in assay [2] (2 µM NMM, intensity decreased), “weak”.

Take `Cc1ccc2c(c1)sc(-c1ccc(N(C)C)cc1)[n+]2C`: the binding entry is recorded as “yes” in assay [1] (2 µM ThT) and “yes” in assay [2] (2 µM ThT, decreased but still strong, non-specific).

`NCCOc1cc(C(=O)Nc2cc(OCCN)c3ccccc3n2)nc(C(=O)Nc2cc(OCCN)c3ccccc3n2)c1`: the thermal shift (ΔTm) (usually the change in melting temperature against a reference sample) in assay [3] (150 mM K+, derived from two Tm (74.00, 77.48)) was 3.48 °C; in assay [3] (150 mM Li+, derived from two Tm (63.27, 65.71)), 2.44 °C; in assay [4], -0.30 °C; in assay [5] (150 mM K+, derived from two Tm (70.00, 74.00)) it was 4.00 °C; in assay [5] (150 mM Li+, derived from two Tm (64.00, 64.00)) it was 0.00 °C. Also, the KD (usually the equilibrium constant for the complex coming apart) in assay [6] stood at 604.9 ± 2.84 nM; in assay [7], 3.327 ± 7e-05 µM.
